US20240116985A1, “STAPLED PEPTIDES AND METHODS THEREOF” (priority 2020, published 2024)
Like-named read-outs stand apart in the source and are kept apart here.

Assays:
[1] = biological target: T1, full-length beta-Catenin (Uniprot ID P35222) (Homo sapiens, UniProt P35222); assay: Fluorescence polarization IC50 (beta-catenin / 5FAM-TCF4 10-53 competition); assay type: binding; conditions: fluorescence polarization; read-out: beta-Catenin FP IC50
T1 construct: 10 nM full-length beta-Catenin (Uniprot ID P35222)
T1 sequence (P35222 1-781): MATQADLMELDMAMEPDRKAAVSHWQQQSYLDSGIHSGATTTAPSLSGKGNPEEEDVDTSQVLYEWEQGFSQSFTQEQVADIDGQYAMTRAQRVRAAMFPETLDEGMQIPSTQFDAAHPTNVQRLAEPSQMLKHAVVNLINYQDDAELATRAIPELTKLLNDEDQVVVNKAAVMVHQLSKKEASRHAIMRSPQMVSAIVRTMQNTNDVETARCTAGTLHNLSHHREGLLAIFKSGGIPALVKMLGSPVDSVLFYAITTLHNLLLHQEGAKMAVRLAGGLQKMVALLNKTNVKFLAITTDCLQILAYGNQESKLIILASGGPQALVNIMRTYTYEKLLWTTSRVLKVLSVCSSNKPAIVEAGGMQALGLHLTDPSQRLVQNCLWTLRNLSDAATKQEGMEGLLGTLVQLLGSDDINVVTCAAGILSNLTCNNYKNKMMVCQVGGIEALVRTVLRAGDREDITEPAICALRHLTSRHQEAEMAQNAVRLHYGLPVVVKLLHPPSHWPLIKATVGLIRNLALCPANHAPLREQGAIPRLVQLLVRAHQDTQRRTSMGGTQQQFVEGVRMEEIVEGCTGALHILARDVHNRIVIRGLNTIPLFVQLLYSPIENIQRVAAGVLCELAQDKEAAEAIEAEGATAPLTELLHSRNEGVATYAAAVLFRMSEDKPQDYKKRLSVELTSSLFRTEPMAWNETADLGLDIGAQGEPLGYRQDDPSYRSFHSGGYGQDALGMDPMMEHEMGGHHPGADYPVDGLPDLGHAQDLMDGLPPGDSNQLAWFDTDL

[2] = biological target: T2, beta-catenin/TCF4 engagement (Homo sapiens, UniProt P35222); assay: Nano-BRET target engagement assay (B-cat-Halo & TCF4-Luc in HEK293 cells); assay type: cell-based; conditions: read-out: NanoBRET Abs IC50
T2 construct: expressed in transfected cells; host or cells: HEK293
T2 sequence (P35222 1-781): T1 sequence (P35222 1-781)

## CC(=O)N1CCC[C@]12CC=CCCCC1(CCCC=CCCCCCC[C@@](C)(C(=O)N[C@@H](Cc3ccccc3)C(=O)N[C@@H](Cc3csc4ccccc34)C(=O)N[C@@H](CCC(N)=O)C(N)=O)NC(=O)[C@H](CCC(N)=O)NC(=O)[C@H](Cc3ccccc3)NC(=O)[C@H](C)NC(=O)[C@H](C)NC(=O)[C@H](CCC(=O)O)NC(=O)[C@H](CC(=O)O)NC1=O)NC(=O)[C@H](CCO)NC(=O)[C@H](CC(=O)O)NC2=O (stereo partly drawn) [I-1545, Ac-PL3-Asp-Hse-B5-Asp-Glu-Ala-Ala-Phe-Gln-S8-Phe-BztA-Gln-NH2]
[1]
  IC50: 0.026 µM
[2]; absolute IC50
  IC50: > 20 µM

## CC(=O)N1CCC[C@]12CC=CCCCC1(CCCC=CCCCOC(=O)N3CC[C@@](C(=O)N[C@@H](Cc4ccsc4)C(=O)N[C@@H](Cc4csc5ccccc45)C(=O)N[C@@H](CCC(N)=O)C(N)=O)(C3)NC(=O)[C@H](CC(C)C)NC(=O)[C@H](Cc3ccccc3)NC(=O)[C@H](C)NC(=O)[C@H](C)NC(=O)[C@H](CN(CC(=O)O)Cc3ccccc3)NC(=O)[C@H](CC(=O)O)NC1=O)NC(=O)[C@H](CC(C)(C)C)NC(=O)[C@H](CC(=O)O)NC2=O (stereo partly drawn) [I-1630, Ac-PL3-Asp-Npg-B5-Asp-[Bn]GA-Ala-Ala-Phe-Leu-PyrS2-3Thi-BztA-Gln-NH2]
[1]
  IC50: 0.0115 µM
[2]; absolute IC50
  IC50: 5 µM

## CC(=O)N1CCC[C@]12CC=CCCCC1(CCCC=CCCCOC(=O)N3CC[C@@](C(=O)N[C@@H](Cc4ccsc4)C(=O)N[C@@H](Cc4csc5ccccc45)C(=O)N[C@@H](CCC(N)=O)C(N)=O)(C3)NC(=O)[C@H](CC(C)C)NC(=O)[C@H](Cc3ccccc3)NC(=O)[C@H](C)NC(=O)[C@H](C)NC(=O)[C@H](Cn3cc(CC(C)(C)C(=O)O)nn3)NC(=O)[C@H](CC(=O)O)NC1=O)NC(=O)[C@H](CC(C)(C)C)NC(=O)[C@H](CC(=O)O)NC2=O (stereo partly drawn) [I-2083, Ac-PL3-Asp-Npg-B5-Asp-[CH2CMe2CO2H]TriAzDap-Ala-Ala-Phe-Leu-PyrS2-3Thi-BztA-Gln-NH2]
[1]
  IC50: 0.005 µM
[2]
  IC50: 3.7 µM

## COC(=O)C[C@@H]1NC(=O)C2(CCCC=CCCCOC(=O)N3CC[C@@](C(=O)N[C@@H](Cc4ccsc4)C(=O)N[C@@H](Cc4csc5ccccc45)C(=O)N[C@@H](CCC(N)=O)C(N)=O)(C3)NC(=O)[C@H](CC(C)C)NC(=O)[C@H](Cc3ccccc3)NC(=O)[C@H](C)NC(=O)[C@H](C)NC(=O)[C@H](CC(=O)O)NC1=O)CCCC=CC[C@]1(CCCN1C(C)=O)C(=O)N[C@@H](CC(=O)O)C(=O)N[C@@H](CC(C)(C)C)C(=O)N2 (stereo partly drawn) [I-2360, Ac-PL3-Asp-Npg-B5-[Me]AspE-Asp-Ala-Ala-Phe-Leu-PyrS2-3Thi-BztA-Gln-NH2]
[1]
  IC50: 2.44 µM
[2]; absolute IC50
  IC50: > 20 µM

## CC(=O)N1CCC[C@]12CC=CCCCC1(CCCC=CCCCOC(=O)N3CC[C@@](C(=O)N[C@@H](Cc4ccsc4)C(=O)N[C@@H](Cc4csc5ccccc45)C(=O)N[C@H](C(N)=O)[C@@H](C)O)(C3)NC(=O)[C@H](CC(C)C)NC(=O)[C@H](Cc3ccccc3)NC(=O)[C@H](C)NC(=O)[C@H](C)NC(=O)[C@H](CC(=O)O)NC(=O)[C@H](CC(=O)O)NC1=O)NC(=O)[C@H](CC(C)(C)C)NC(=O)[C@H](CC(=O)O)NC2=O (stereo partly drawn) [I-1494, Ac-PL3-Asp-Npg-B5-Asp-Asp-Ala-Ala-Phe-Leu-PyrS2-3Thi-BztA-Thr-NH2]
[1]
  IC50: 0.005 µM
[2]; absolute IC50
  IC50: 14.7 µM

## CC(=O)N1CCC[C@]12CC=CCCCC1(CCCC=CCCCOC(=O)N3CC[C@@](C(=O)N[C@@H](Cc4ccccc4C(F)(F)F)C(=O)N[C@@H](Cc4csc5ccccc45)C(=O)N[C@@H](CCCN4CCC(F)(F)CC4)C(N)=O)(C3)NC(=O)[C@H](CC(C)C)NC(=O)[C@H](Cc3ccccc3)NC(=O)[C@H](C)NC(=O)[C@H](C)NC(=O)[C@H](Cc3cccc(C(=O)O)c3)NC(=O)[C@H](CC(=O)O)NC1=O)NC(=O)[C@H](CC(C)(C)C)NC(=O)[C@H](CC(=O)O)NC2=O (stereo partly drawn) [I-1608, Ac-PL3-Asp-Npg-B5-Asp-3COOHF-Ala-Ala-Phe-Leu-PyrS2-2F3MeF-BztA-F2PipNva-NH2]
[1]
  IC50: 0.076 µM
[2]; absolute IC50
  IC50: 15.1 µM

## CC(=O)N1CCC[C@]12CC=CCCCC1(CCCC=CCCCOC(=O)N3CC[C@@](C(=O)N[C@@H](Cc4ccsc4)C(=O)N[C@@H](Cc4csc5ccccc45)C(=O)N[C@@H](C)C(N)=O)(C3)NC(=O)[C@H](CC(C)C)NC(=O)[C@H](Cc3ccccc3)NC(=O)[C@H](C)NC(=O)[C@H](CCCCN)NC(=O)[C@H](Cc3cccc(C(=O)O)c3)NC(=O)[C@H](CC(=O)O)NC1=O)NC(=O)[C@H](CC(C)(C)C)NC(=O)[C@H](CC(=O)O)NC2=O (stereo partly drawn) [I-1917, Ac-PL3-Asp-Npg-B5-Asp-3COOHF-Lys-Ala-Phe-Leu-PyrS2-3Thi-BztA-Ala-NH2]
[1]
  IC50: 0.013 µM
[2]
  IC50: 37.7 µM

## CC(=O)N1CCC[C@]12CC=CCCCC1(CCCC=CCCCOC(=O)N3CC[C@@](C(=O)N[C@@H](Cc4ccccc4Cl)C(=O)N[C@@H](Cc4csc5ccccc45)C(=O)N[C@@H](CC(=O)N4CCN(C)CC4)C(N)=O)(C3)NC(=O)[C@H]([C@@H](C)O)NC(=O)[C@H](Cc3ccccc3)NC(=O)[C@H](C)NC(=O)[C@H](C)NC(=O)[C@H](CN(CC(=O)O)CC(F)(F)F)NC(=O)[C@H](CC(=O)O)NC1=O)NC(=O)[C@H](CC(C)(C)C)NC(=O)[C@H](CC(=O)O)NC2=O (stereo partly drawn) [I-1611, Ac-PL3-Asp-Npg-B5-Asp-TfeGA-Ala-Ala-Phe-Thr-PyrS2-2C1F-BztA-MePpzAsn-NH2]
[1]
  IC50: 0.01 µM
[2]; absolute IC50
  IC50: 9.8 µM

## CNC(=O)C[C@@H]1NC(=O)[C@H](Cc2ccccc2)NC(=O)[C@H](C)NC(=O)C(C)(C)NC(=O)[C@H]([C@@H](C)O)NC(=O)[C@H](CC(N)=O)NC(=O)C2(CCCC=CCCCOC(=O)N3CC[C@@](C(=O)N[C@@H](Cc4ccsc4)C(=O)N[C@@H](Cc4csc5ccccc45)C(=O)N[C@@H](CC(N)=O)C(N)=O)(C3)NC1=O)CCCC=CC[C@]1(CCCN1C(C)=O)C(=O)N[C@@H](CC(=O)O)C(=O)N[C@@H](CC(C)(C)C)C(=O)N2 (stereo partly drawn) [I-2497, Ac-PL3-Asp-Npg-B5-Asn-Thr-Aib-Ala-Phe-MeAsn-PyrS2-3Thi-BztA-Asn-NH2]
[1]
  IC50: 0.105 µM
[2]; absolute IC50
  IC50: > 20 µM

## CC(=O)N1CCC[C@]12CC=CCCCC1(CCCC=CCCCOC(=O)N3CC[C@@](C(=O)N[C@@H](Cc4ccccc4)C(=O)N[C@@H](Cc4csc5ccccc45)C(=O)N[C@@H](CCCCN)C(N)=O)(C3)NC(=O)[C@H](CC(C)C)NC(=O)[C@H](Cc3ccccc3)NC(=O)[C@H](C)NC(=O)[C@H](CCO)NC(=O)[C@H](CCC(N)=O)NC(=O)[C@H](CC(=O)O)NC1=O)NC(=O)[C@H](CC1CCCCC1)NC(=O)[C@H](CC(N)=O)NC2=O (stereo partly drawn) [I-2419, Ac-PL3-Asn-Cha-B5-Asp-Gln-Hse-Ala-Phe-Leu-PyrS2-Phe-BztA-Lys-NH2]
[1]
  IC50: 0.203 µM
[2]; absolute IC50
  IC50: > 20 µM

## CC(=O)N1CCC[C@]12CC=CCCCC1(CCCC=CCCCOC(=O)N3CC[C@@](C(=O)N[C@@H](Cc4cccc(F)c4)C(=O)N[C@@H](Cc4csc5ccccc45)C(=O)N[C@@H](C)C(N)=O)(C3)NC(=O)[C@H](CC(C)C)NC(=O)[C@H](Cc3ccccc3)NC(=O)[C@H](C)NC(=O)[C@H](C)NC(=O)[C@H](Cc3cccc(C(=O)O)c3)NC(=O)[C@H](CC(=O)O)NC1=O)NC(=O)[C@H](CC(C)(C)C)NC(=O)[C@H](CC(=O)O)NC2=O (stereo partly drawn) [I-2261, Ac-PL3-Asp-Npg-B5-Asp-3COOHF-Ala-Ala-Phe-Leu-PyrS2-3FF-BztA-Ala-NH2]
[1]
  IC50: 0.034 µM
[2]; absolute IC50
  IC50: 6.4 µM

## CC(=O)N1CCC[C@]12CC=CCCCC1(CCCC=CCCCOC(=O)N3CC[C@@](C(=O)N[C@@H](Cc4ccccc4)C(=O)N[C@@H](Cc4csc5ccccc45)C(=O)N[C@@H](CCCCN)C(N)=O)(C3)NC(=O)[C@H](CC(N)=O)NC(=O)[C@H](Cc3ccccc3)NC(=O)[C@H](C)NC(=O)[C@H](CCCCNC(C)C)NC(=O)[C@H](CCC(N)=O)NC(=O)[C@H](CC(=O)O)NC1=O)NC(=O)[C@H](CC1CCCCC1)NC(=O)[C@H](CC(N)=O)NC2=O (stereo partly drawn) [I-2110, Ac-PL3-Asn-Cha-B5-Asp-Gln-iPrLys-Ala-Phe-Asn-PyrS2-Phe-BztA-Lys-NH2]
[1]
  IC50: 0.088 µM
[2]
  IC50: > 20 µM

## CC(=O)N1CCC[C@]12CC=CCCCC1(CCCC=CCCCOC(=O)N3CC[C@@](C(=O)N[C@@H](Cc4ccsc4)C(=O)N[C@@H](Cc4csc5ccccc45)C(=O)N[C@@H](C)C(N)=O)(C3)NC(=O)[C@H](CC(C)C)NC(=O)[C@H](Cc3ccccc3)NC(=O)[C@H](C)NC(=O)[C@H](CCS(C)(=O)=O)NC(=O)[C@H](Cc3cccc(C(=O)O)c3)NC(=O)[C@H](CC(=O)O)NC1=O)NC(=O)[C@H](CC(C)(C)C)NC(=O)[C@H](CC(=O)O)NC2=O (stereo partly drawn) [I-2064, Ac-PL3-Asp-Npg-B5-Asp-3COOHF-Met2O-Ala-Phe-Leu-PyrS2-3Thi-BztA-Ala-NH2]
[1]
  IC50: 0.016 µM
[2]
  IC50: 11.8 µM
